Source: PMC11480511 (Scientific Reports, 2024)
Values after ≈ are worked out from the molar mass of the structure shown. Where two headings read alike, the source gives them in different places.

Columns and labels:
HL-60(TB) = assay: NCI single-dose growth inhibition screen; format: cell-based; conditions: Homo sapiens; Leukemia HL-60(TB); single dose 10^−5 M
K-562 = assay: NCI single-dose growth inhibition screen; format: cell-based; conditions: Homo sapiens, K562; Leukemia K-562; single dose 10^−5 M
A549/ATCC = assay: NCI single-dose growth inhibition screen; format: cell-based; conditions: Homo sapiens; Non-Small Cell Lung Cancer A549/ATCC; single dose 10^−5 M
HOP-62 = assay: NCI single-dose growth inhibition screen; format: cell-based; conditions: Homo sapiens; Non-Small Cell Lung Cancer HOP-62; single dose 10^−5 M
NCI-H322M = assay: NCI single-dose growth inhibition screen; format: cell-based; conditions: Homo sapiens; Non-Small Cell Lung Cancer NCI-H322M; single dose 10^−5 M
MDA-MB-435 = assay: NCI single-dose growth inhibition screen; format: cell-based; conditions: Homo sapiens; Melanoma MDA-MB-435; single dose 10^−5 M
SK-MEL-2 = assay: NCI single-dose growth inhibition screen; format: cell-based; conditions: Homo sapiens; Melanoma SK-MEL-2; single dose 10^−5 M
SK-MEL-28 = assay: NCI single-dose growth inhibition screen; format: cell-based; conditions: Homo sapiens; Melanoma SK-MEL-28; single dose 10^−5 M
SK-MEL-5 = assay: NCI single-dose growth inhibition screen; format: cell-based, human; conditions: single dose 10^−5 M; for inhibition at 10 µM: Homo sapiens, SK-MEL-5, Melanoma SK-MEL-5
UACC-257 = assay: NCI single-dose growth inhibition screen; format: cell-based; conditions: Homo sapiens; Melanoma UACC-257; single dose 10^−5 M
IGROV1 = assay: NCI single-dose growth inhibition screen; format: cell-based; conditions: Homo sapiens, IGROV-1; Ovarian Cancer IGROV1; single dose 10^−5 M
OVCAR-4 = assay: NCI single-dose growth inhibition screen; format: cell-based; conditions: Homo sapiens; Ovarian Cancer OVCAR-4; single dose 10^−5 M
RXF 393 = assay: NCI single-dose growth inhibition screen; format: cell-based; conditions: Homo sapiens; Renal Cancer RXF 393; single dose 10^−5 M
UO-31 = assay: NCI single-dose growth inhibition screen; format: cell-based, human; conditions: single dose 10^−5 M; for inhibition at 10 µM: Homo sapiens, UO-31, Renal Cancer UO-31; for Growth Inhibition (%): Renal Cancer UO-31
MDA-MB-468 = assay: NCI single-dose growth inhibition screen; format: cell-based; conditions: Homo sapiens; Breast Cancer MDA-MB-468; single dose 10^−5 M
DU-145 = assay: NCI single-dose growth inhibition screen; format: cell-based; conditions: Homo sapiens; Prostate Cancer DU-145; single dose 10^−5 M
topoisomerase IIβ = molecular target: T1, topoisomerase IIβ (Homo sapiens, UniProt Q02880); assay: Topoisomerase II inhibition, human DNA topoisomerase Elisa kit; format: biochemical; conditions: ± SEM; read-out: Topoisomerase II IC50 µM ± SEM
T1 construct: purchased
Procedure: Two folds of serial dilution was accomplished after standards and the tested compounds were dissolved in sample diluent. Horseradish peroxidase (HRP-avidin) and biotin-conjugated antibody were diluted 10 times each. Each well received 100 µL of each concentration of the standard or test chemicals, which were then added and incubated at 37 °C for 60 min. […] The microtiter plate was rinsed three times and given room to aspirate. After that, the plate was incubated at 37 °C for 60 min with 100 µL of HRP-avidin solution added to each well. After that, the plate was aspirated and cleaned 5 times. Each well received 90 µL of TMB substrate, and the plate was incubated for 30 min. at 37 °C in a light-protected environment. Finally, stop solution (50 µL) was loaded, and within 5 min, the absorbance at 450 nm was measured spectrophotometrically.
Topoisomerase enzyme assay
Topoisomerase I and II inhibitory activity […]
topoisomerase IIβ inhibitory activity utilizing the human DNA topoisomerase Elisa kit.
Standards and the tested compound were dissolved in sample diluent and 2 folds serial dilution was achieved. Biotin-conjugated antibody and avidin conjugated Horseradish Peroxidase (HRP-avidin) were diluted to 10 folds. 100 μL of each concentration of standard or test compound were added to each well. Incubate at 37 °C for 1 h. The liquid in each well was removed. 10 0 μL of Biotin-conjugated antibody solution was added to each well followed by incubation for 1 h at 37 °C. The microtiter plate was allowed to aspirate and washed 3 times. 100 μL of avidin conjugated Horseradish Peroxidase (HRP -avidin) solution was added to each well and the plate was incubated for 1 h at 37 °C. The plate was aspirated and washed 5 times. 90 μL of TMB substrate were added to each well and the plate was incubated for 30 min at 37 °C and protected from light. 50 μL stop so lution was added. The absorbance was measured spectrophotometrically within 5 min at 450 nm .

S. aureus ATCC 6538 = assay: Antibacterial screening, agar cup diffusion method; format: cell-based; conditions: Gram + ve strain; for MIC: Staphylococcus aureus, ATCC6538, read-out: Minimum inhibitory concentrations (MIC, µM) S. aureus ATCC 6538
Procedure: Anti-bacterial activity of the recently synthesized compounds 3a-k was evaluated at AUMC (Assiut University Mycological Centre), Assiut, Egypt. Assays were done against Gram-negative strains of K. pneumoniae (ATCC 100310, E. coli (ATCC 25922), Pseudomonas aeruginosa (ATCC 27853) and the Gram-positive S. aureus (ATCC 6538) strain utilizing standard agar cup diffusion method. The isolates from the four bacterial species examined were kept in TSB (Trypticase Soya Broth, Becton and Dickinson) with 10% glycerol at -70 °C and then subcultured on TSA (Trypticase Soya Agar, Becton and Dickinson) and TSB for 24 h at 37 °C former to inoculation. Bacterial isolates were then plated on sterile petri plates with 1 × 10^8 CFU/mL (0.5 McFarland turbidity) and 20 mL of Mueller Hinton Agar media (Oxoid) was then loaded. To ensure that the microorganisms were evenly dispersed, the plates were gently rotated before being left to harden on a level surface. Four equally spaced spherical-shaped wells (10 mm diameter) were painstakingly drilled using a sterilized cork bore after media solidification. All tested compounds under test underwent two-fold serial dilutions in a sequential manner. Three replications of 100 µL of each concentration were added to a well using a micropipette. Plates were then incubated for 24-hour at 37 °C. The average of the inhibition zones was then calculated. To determine the MICs, the natural logarithm of each diluted test substance’s concentration was plotted against the average area of the related inhibition zone. Following that, a regression line was created and the intercept on the ‘ln concentration” axis was determined, and the antilogarithm was calculated to indicate the MIC value[34],[63].

E. coli ATCC 25,922 = assay: Antibacterial screening, agar cup diffusion method; format: cell-based; conditions: read-out: Minimum inhibitory concentrations (MIC, µM) E. coli ATCC 25,922
[1] = test system: A498 renal cancer cell line; assay: cells; conditions: Homo sapiens; for viability at 0.4 µM / viability at 1.6 µM / viability at 25 µM / viability at 100 µM: A498; for IC50: A498, read-out: In vitro cytotoxicity (IC50) A498 cell line (µM ± SEM)
NCI-H522 = assay: NCI single-dose growth inhibition screen; format: cell-based; conditions: Homo sapiens; Non-Small Cell Lung Cancer NCI-H522; single dose 10^−5 M
[2] = Escherichia coli, ATCC25, Gram –ve strain

T1 sequence (Q02880 whole entry): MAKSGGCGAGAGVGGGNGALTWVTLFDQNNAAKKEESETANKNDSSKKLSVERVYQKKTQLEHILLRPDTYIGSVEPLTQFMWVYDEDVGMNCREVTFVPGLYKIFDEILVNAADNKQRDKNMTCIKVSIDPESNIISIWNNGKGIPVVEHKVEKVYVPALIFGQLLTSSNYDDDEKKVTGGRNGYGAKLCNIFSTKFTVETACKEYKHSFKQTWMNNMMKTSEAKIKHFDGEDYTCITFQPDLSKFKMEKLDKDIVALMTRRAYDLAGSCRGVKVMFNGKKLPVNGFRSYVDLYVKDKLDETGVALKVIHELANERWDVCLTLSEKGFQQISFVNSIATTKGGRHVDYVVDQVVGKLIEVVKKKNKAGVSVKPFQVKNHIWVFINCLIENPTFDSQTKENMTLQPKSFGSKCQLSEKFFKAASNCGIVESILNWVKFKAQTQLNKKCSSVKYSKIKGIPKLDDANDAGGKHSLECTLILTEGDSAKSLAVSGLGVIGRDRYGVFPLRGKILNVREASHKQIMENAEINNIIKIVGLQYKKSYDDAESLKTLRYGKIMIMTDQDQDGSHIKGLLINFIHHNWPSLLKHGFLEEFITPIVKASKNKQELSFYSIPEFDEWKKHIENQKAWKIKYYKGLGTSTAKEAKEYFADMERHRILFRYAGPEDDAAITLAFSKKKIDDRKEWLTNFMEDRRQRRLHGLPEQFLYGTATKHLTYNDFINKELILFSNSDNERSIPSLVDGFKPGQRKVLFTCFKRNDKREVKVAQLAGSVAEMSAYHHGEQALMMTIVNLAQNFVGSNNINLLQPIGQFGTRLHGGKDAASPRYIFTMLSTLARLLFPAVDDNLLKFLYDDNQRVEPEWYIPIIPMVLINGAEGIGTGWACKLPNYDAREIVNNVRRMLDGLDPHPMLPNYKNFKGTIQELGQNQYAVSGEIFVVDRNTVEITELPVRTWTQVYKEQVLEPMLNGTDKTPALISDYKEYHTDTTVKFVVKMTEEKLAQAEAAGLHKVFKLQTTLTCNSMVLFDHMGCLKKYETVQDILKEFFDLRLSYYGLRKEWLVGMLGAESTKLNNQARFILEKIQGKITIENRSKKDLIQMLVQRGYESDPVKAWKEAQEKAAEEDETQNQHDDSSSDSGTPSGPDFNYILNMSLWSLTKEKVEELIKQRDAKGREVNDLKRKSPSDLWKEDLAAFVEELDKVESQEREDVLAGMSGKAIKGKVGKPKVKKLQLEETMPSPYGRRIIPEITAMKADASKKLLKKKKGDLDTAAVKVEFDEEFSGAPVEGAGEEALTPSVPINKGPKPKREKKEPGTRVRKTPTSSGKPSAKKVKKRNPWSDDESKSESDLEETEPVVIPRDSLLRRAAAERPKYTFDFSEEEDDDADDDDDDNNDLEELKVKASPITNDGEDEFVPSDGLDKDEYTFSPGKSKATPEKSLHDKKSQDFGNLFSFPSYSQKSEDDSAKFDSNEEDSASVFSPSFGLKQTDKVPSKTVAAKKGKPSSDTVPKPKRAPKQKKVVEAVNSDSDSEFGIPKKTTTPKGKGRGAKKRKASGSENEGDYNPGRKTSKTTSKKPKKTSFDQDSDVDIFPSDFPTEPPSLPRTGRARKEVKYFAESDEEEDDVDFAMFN

O=C(O)c1cn(C2CC2)c2cc(N3CCN(C(=O)CCCN4C(=O)CSC4=O)CC3)c(F)cc2c1=O [3 L, 1-Cyclopropyl-7-(4-(4-(2,4-dioxothiazolidin-3-yl)butanoyl)piperazin-1-yl)-6-fluoro-4-oxo-1,4-dihydroquinoline-3-carboxylic acid]
inhibition at 10 µM (HL-60(TB)): < 0% | inhibition at 10 µM (K-562): < 0% | inhibition at 10 µM (A549/ATCC): 6.7% | inhibition at 10 µM (HOP-62): 16.8% | inhibition at 10 µM (NCI-H322M): 0% | inhibition at 10 µM (MDA-MB-435): < 0% | inhibition at 10 µM (SK-MEL-2): < 0% | inhibition at 10 µM (SK-MEL-28): 49.5% | inhibition at 10 µM (SK-MEL-5): < 0% | inhibition at 10 µM (UACC-257): < 0% | inhibition at 10 µM (IGROV1): 15.3% | inhibition at 10 µM (OVCAR-4): 19.2% | inhibition at 10 µM (RXF 393): 30.7% | inhibition at 10 µM (UO-31): 42% | Growth Inhibition (%) (UO-31): 41.0% | inhibition at 10 µM (MDA-MB-468): 2.1% | inhibition at 10 µM (DU-145): 8.3% | IC50 (topoisomerase IIβ): 14.3 ± 0.78 µM | MIC (S. aureus ATCC 6538): > 20 µM | MIC (E. coli ATCC 25,922; [2]): > 20 µM | viability at 0.4 µM [1]: 92.2% | viability at 1.6 µM [1]: 80.2% | viability at 25 µM [1]: 59.6% | viability at 100 µM [1]: 49.1% | IC50 [1]: 80.7 ± 4.55 µM

O=C(O)c1cn(C2CC2)c2cc(N3CCN(C(=O)CCCN4C(=O)SC(=Cc5cccc6ccccc56)C4=O)CC3)c(F)cc2c1=O [3j, 1-cyclopropyl-6-fluoro-7-[4-[4-[5-(1-naphthylmethylene)-2,4-dioxo-thiazolidin-3-yl]butanoyl]piperazin-1-yl]-4-oxo-quinoline-3-carboxylic acid]
inhibition at 10 µM (HL-60(TB)): < 0% | inhibition at 10 µM (K-562): 10.9% | inhibition at 10 µM (A549/ATCC): 9.3% | inhibition at 10 µM (HOP-62): 15.1% | inhibition at 10 µM (NCI-H322M): 26.6% | inhibition at 10 µM (NCI-H522): 18.5% | inhibition at 10 µM (MDA-MB-435): 12.8% | inhibition at 10 µM (SK-MEL-2): < 0% | inhibition at 10 µM (SK-MEL-28): 4.5% | inhibition at 10 µM (SK-MEL-5): 46.1% | Growth Inhibition (%) (SK-MEL-5; Melanoma SK-MEL-5): 46.1% | inhibition at 10 µM (UACC-257): 19.1% | inhibition at 10 µM (IGROV1): 25.9% | inhibition at 10 µM (OVCAR-4): 16.4% | inhibition at 10 µM (RXF 393): 11.2% | inhibition at 10 µM (UO-31): 48.1% | inhibition at 10 µM (MDA-MB-468): 4.7% | inhibition at 10 µM (DU-145): 21.9% | IC50 (topoisomerase IIβ): 39.8 ± 2.17 µM | MIC (S. aureus ATCC 6538): > 20 µM | MIC (E. coli ATCC 25,922; [2]): 1.94 to 2.6 µM (≈ 1.27 to 1.7 µg/mL) | MIC (E. coli ATCC 25,922; Gram –ve strain): 2.60 µM (≈ 1.7 µg/mL) | viability at 0.4 µM [1]: 84.7% | viability at 1.6 µM [1]: 71.9% | viability at 25 µM [1]: 51.4% | viability at 100 µM [1]: 42.5% | IC50 [1]: 33.9 ± 1.91 µM

O=C(O)c1cn(C2CC2)c2cc(N3CCN(C(=O)CCCN4C(=O)S/C(=C\c5ccc(F)cc5)C4=O)CC3)c(F)cc2c1=O [3i]
inhibition at 10 µM (HL-60(TB)): < 0% | inhibition at 10 µM (K-562): < 0% | inhibition at 10 µM (A549/ATCC): 10.4% | inhibition at 10 µM (HOP-62): 2.9% | inhibition at 10 µM (NCI-H322M): 11.5% | inhibition at 10 µM (NCI-H522): 22.9% | inhibition at 10 µM (MDA-MB-435): 1.6% | inhibition at 10 µM (SK-MEL-2): < 0% | inhibition at 10 µM (SK-MEL-28): 1.5% | inhibition at 10 µM (SK-MEL-5): 5.5% | inhibition at 10 µM (UACC-257): 12.3% | inhibition at 10 µM (IGROV1): 1.3% | inhibition at 10 µM (OVCAR-4): 0.5% | inhibition at 10 µM (RXF 393): < 0% | inhibition at 10 µM (UO-31): 21.7% | inhibition at 10 µM (MDA-MB-468): 7.6% | inhibition at 10 µM (DU-145): < 0% | IC50 (topoisomerase IIβ): 15 ± 0.81 µM | Minimum inhibitory concentrations (MIC, µM) S. aureus ATCC 6538 (S. aureus ATCC 6538): did not show considerable anti-bacterial activity | MIC (S. aureus ATCC 6538): > 20 µM | MIC (E. coli ATCC 25,922; [2]): 0.54 µM (≈ 0.336 µg/mL) | viability at 0.4 µM [1]: 95.7% | viability at 1.6 µM [1]: 83.5% | viability at 25 µM [1]: 65% | viability at 100 µM [1]: 52.3% | IC50 [1]: 147 ± 8.3 µM

O=C(O)c1cn(C2CC2)c2cc(N3CCN(C(=O)CCCN4C(=O)S/C(=C\c5ccc([N+](=O)[O-])cc5)C4=O)CC3)c(F)cc2c1=O [3k]
inhibition at 10 µM (HL-60(TB)): < 0% | inhibition at 10 µM (K-562): < 0% | inhibition at 10 µM (A549/ATCC): 5.5% | inhibition at 10 µM (HOP-62): 19.7% | inhibition at 10 µM (NCI-H322M): < 0% | inhibition at 10 µM (MDA-MB-435): < 0% | inhibition at 10 µM (SK-MEL-2): < 0% | inhibition at 10 µM (SK-MEL-28): < 0% | inhibition at 10 µM (SK-MEL-5): 0.8% | inhibition at 10 µM (UACC-257): < 0% | inhibition at 10 µM (IGROV1): 15.9% | inhibition at 10 µM (OVCAR-4): 13.7% | inhibition at 10 µM (RXF 393): 47.9% | inhibition at 10 µM (UO-31): 42% | Growth Inhibition (%) (UO-31): 41.1% | inhibition at 10 µM (MDA-MB-468): < 0% | inhibition at 10 µM (DU-145): 7% | IC50 (topoisomerase IIβ): 18.7 ± 1.02 µM | MIC (S. aureus ATCC 6538): > 20 µM | MIC (E. coli ATCC 25,922; [2]): 0.25 µM (≈ 0.162 µg/mL) | viability at 0.4 µM [1]: 103% | viability at 1.6 µM [1]: 93.1% | viability at 25 µM [1]: 72.6% | viability at 100 µM [1]: 60.5% | IC50 [1]: > 150 µM
